Results as given in patent US11524962B2, “Substituted pyrrolo[2,3-d]pyrimidines as inhibitors of protein arginine methyl transferase 5 (PRMT5)” (PRELUDE THERAPEUTICS, INCORPORATED, priority 2017, dated 2022).

Experiments:
PRMT5/MEP50 complex [1] = target: T1, PRMT5/MEP50 complex (Homo sapiens (Human), UniProt O14744); assay: HotSpot Assay; type: biochemical
Procedure: HotSpot Assay. Compounds were solubilized and 3-fold diluted in 100% DMSO. […] Standard reactions were performed in a total volume of 50 μl in assay buffer, with histone H2A (5 μM final) as substrate. To this was added the PRMT5/MEP50 complex diluted to provide a final assay concentration of 5 nM and the compounds were allowed to preincubate for 15 to 20 minutes at room temperature. The reaction was initiated by adding S-[3H-methyl]-adenosyl-L-methionine (PerkinElmer) to final concentration of 1 μM. Following a 60 minutes incubation at 30° C., the reaction was stopped by adding 100 μL of 20% TCA. Each reaction was spotted onto filter plate (MultiScreen FB Filter Plate, Millipore), and washed 5 times with PBS buffer, Scintillation fluid was added to the filter plate and read in a scintillation counter. IC50 values were determined by fitting the data to the standard 4 parameters with Hill Slope using GraphPad Prism software. This procedure generated the HotSpot data in Table 7.

PRMT5/MEP50 complex [2] = target: T1, PRMT5/MEP50 complex; assay: Flash plate assay; type: biochemical; settings: read-out: Flash Plate IC50
Procedure: Flash plate assay. Compounds were solubilized, and 3-fold diluted in 100% DMSO. […] Standard reactions were performed in a total volume of 30 μl in assay buffer, with 300 nM histone H4 based AcH4-23 (Anaspec: AS-65002) as substrate. To this was added the PRMT5/MEP50 complex diluted to provide a final assay concentration of 2.5 nM and the compounds were allowed to preincubate for 20 minutes at 37° C. The reaction was initiated by adding S-[3H-methyl]-adenosyl-L-methionine (PerkinElmer: NET155001MC) to final concentration of 1 μM. Following a 30 minutes incubation at 37° C., the reaction was stopped by adding 25 μL of 8M Guanidine HCl. Prepare streptavidin YSI SPA beads (Perkinelmer: RPNQ0012) at 0.3 mg/mL in assay buffer. To each reaction, add 150 μL of SPA beads suspension, and incubated while shaking at room temperature for 30 minutes. The plate was centrifuged at 100×g for 30 second before reading in a scintillation counter. IC50 values were determined by fitting the data to the standard 4 parameters with Hill Slope using GraphPad Prism software. This procedure produced the Flash Plate data in Table 7.

U-87 MG cells = assay: Cell proliferation assay in U-87 MG cells; type: cell-based; settings: Homo sapiens, 240 h, day 10, read-out: Prolif_U87 IC50
Procedure: One day before experiment, Granta-519 cells were passaged to a density of 0.5×10^6 cells/ml. U-87 MG cells were trypsinized and 2,000 cells were seeded into 96-well plates and allow to grow overnight. On the day of experiment (day 0), Granta-519 Cells were spun down at 1,500 rpm for 4 min, resuspended in fresh medium to 0.5×10^6 cells/ml and 190 ul of cells were added to 96 well plates. For U-87 MG cells, old medium was removed and replaced with 190 uL fresh medium. Compound working stocks were first diluted at 1:50 with fresh medium in 96 well plate and 10 μL of diluted drugs were added to 96 well plates containing cells and incubated for 3 days. DMSO was used a vehicle control.
One day 3, 50 uL of Granta-519 cells were transferred to a new 96-well plate and 140 uL fresh medium was added. For U-87 MG cells, old medium was removed and replaced with 190 uL fresh medium. Compound working stocks were freshly diluted at 1:50 with medium and 10 μL of diluted drugs were added to cells and grow for 3 additional days. The same process was repeated on day 6. Cells were allowed to grow for additional 4 days.
On day 10, 100 uL Granta-519 cells were transferred to a new 96 well plate and 10 μL of Cell Counting Kit-8 (CCK-8, Jojindo, CK04-13) solution was added. For U-87 MG cells, old medium was removed and replaced with 100 uL fresh medium and 10 uL CCK-8 solution was added. Plates were incubated in CO2 incubator for 2 hours (Granta-519 cells) or 30 min (U-87 MG cells) and OD450 values were measured with a microplate reader (iMark microplate reader, Bio-Rad). Percentage of viable cells, relative to DMSO vehicle control, were calculated and plotted in Graphpad Prism ([Inhibitor]vs. normalized response−Variable slope) to determine proliferation IC50 values on day 10.
These cell proliferation procedures produced the data in Table 7.

[3] = test system: Symmetric Di-Methyl Arginine (sDMA) marks in U-87 MG cells; assay: sDMA Western blot / In Cell Western in U-87 MG cells; type: cell-based; settings: Homo sapiens, 72 h, 3 days, read-out: sDMA_U87 IC50
Procedure: (§1) Compound titration and cell culture: Compounds were dissolved in DMSO to make 10 mM stock and 3-fold series dilutions were further conducted to make working stocks top at 1 mM. Granta-519 cells were maintained in PRMI 1640 (Corning Cellgro, Catalog #: 10-040-CV) supplemented with 10% v/v FBS (GE Healthcare, Catalog #: SH30910.03) and U-87 MG cells were maintained in DMEM (Corning Cellgro, Catalog #: 10-013-CV) with 10% FBS and 2 mM Glutamin (Corning Cellgro, Catalog #25005CV).
(§2) To determine enzyme inhibition IC50 values in Granta-519 and U-87 MG cells using Western Blot analysis. One day before experiment, Granta-519 cells were passaged to a density of 0.5×10^6 cells/ml. U-87 MG cells were trypsinized and 4×10^5 cells were seeded into 6-well plates and allow to grow overnight. The next day, Granta-519 cells were spun down at 1,500 rpm for 4 min, resuspend in fresh medium at 0.5×10^6 cells/ml and 3 mL of culture (1.5×10^6 cells) were seeded into 6 well plate. Eight-point, 3-fold serial dilutions of compound working stocks were added to cells (3 ul, 1:1,000 dilution, DMSO concentration was 0.1%; final top concentration at 1 uM) and incubated for 3 days. Cells incubated with DMSO was used as a vehicle control.
(§3) Cells were harvested 3 days later, resuspended in 15 uL PBS, lysed in 4% SDS, and homogenized by passing through homogenizer column (Omega Biotek, Catalog #: HCR003). Total protein concentrations were determined by BCA assay (ThermoFisher Scientific, Catalog #: 23225). Lysates were mixed with 5× Laemmli buffer and boiled for 5 min. Forty ug of total protein was separated on SDS-PAGE gels (Bio-Rad, catalog #: 4568083, 4568043), transferred to PVDF membrane, blocked with 5% dry milk (Bio-Rad, Catalog #: 1706404) in TBS with 0.1% v/v Tween 20 (TBST) for 1 hour at room temperature (RT), and incubated with primary antibodies (sDMA: Cell signaling, Catalog #: 13222, 1:3,000; β-Actin: sigma, Catalog #: 1:5,000) in 5% dry milk in TBST at 4° C. overnight. The next day, membranes were washed with TBST, 5×5 min, and incubated with HRP conjugated seconded antibody (GE Healthcare; Catalog #: NA934-1ML, NA931-1ML; 1:5,000) for 2 hours at RT, followed by 5×5 min washes with TBST, and incubation with ECL substrates (Bio-Rad, Catalog #: 1705061, 1705062). Chemiluminescent signal was captured with Fluochem HD2 imager (Proteinsimple). SmD3me2s bands were quantified by ImageJ. Signals were normalized to β-Actin and DMSO control. IC50 values were calculated using Graphpad Prism ([Inhibitor]vs. normalized response−Variable slope).
U87-MG cells were trypsinized one day before the experiment, seeded into a 384-well plate at 2500 cells/well using a Multidrop Combi Dispenser (ThermoFisher) and allowed to grow overnight. The next day (day 0), a series of 9-point, 3-fold serial dilutions of compounds were prepared and dispensed into wells from a 1 mM stock solution using a TECAN digital dispenser (D300e) and the DMSO % concentration was normalized to 0.1%. Three days later, media was removed, and cells were processed as described above.
To determine IC50 values, the ratio for each well was calculated (sDMA 800 nm value/DRAQ5 700 nm value). Each plate included 28 negative control wells (DMSO only, minimum inhibition) and 18 positive control wells for maximum inhibition (treated with 3 uM of a reference compounds, background wells). The average ratios of minimum and maximum inhibition controls were calculated and used to determine the percentage of sDMA, relative to DMSO, for each well in the plate.
These procedures generated the sDMA data in Table 7.

[4] = test system: Symmetric Di-Methyl Arginine (sDMA) marks in Granta-519 cells; assay: sDMA Western blot / In Cell Western in Granta-519 cells; type: cell-based; settings: Homo sapiens, 72 h; Granta-519, 3 days; read-out: sDMA_Granta IC50
Procedure: as §1, §2, §3
sDMA In Cell Western procedure (ICW): Granta-519 cells were passaged to a density of 0.5×10^6 cells/ml one day before experiments and allowed to grow overnight. The next day (day 0), cells were spun down at 1,500 rpm for 4 min, resuspended in fresh medium to 0.2×10^6 cells/ml and 100 uL of cells were added to 384-well plates using a Multidrop Combi Dispenser (ThermoFisher). A series of 9-point, 3-fold serial dilutions of compounds were prepared and dispensed into wells from a 1 mM stock solution using a TECAN digital dispenser (D300e) and the DMSO % concentration was normalized in each well to 0.1%. DMSO and 3 uM of reference compounds were used as negative (minimum inhibition) and positive (maximum inhibition) controls, respectively. After 3 days of incubation, cells were first resuspended and then 80 ul of cells were transferred to a Poly-D-lysine 384-well plate (Corning, Catalog #354663), followed by 30 minutes incubation at room temperature (RT) and 5 additional hours of incubation at 37° C. […]

T1 sequence (O14744 whole entry): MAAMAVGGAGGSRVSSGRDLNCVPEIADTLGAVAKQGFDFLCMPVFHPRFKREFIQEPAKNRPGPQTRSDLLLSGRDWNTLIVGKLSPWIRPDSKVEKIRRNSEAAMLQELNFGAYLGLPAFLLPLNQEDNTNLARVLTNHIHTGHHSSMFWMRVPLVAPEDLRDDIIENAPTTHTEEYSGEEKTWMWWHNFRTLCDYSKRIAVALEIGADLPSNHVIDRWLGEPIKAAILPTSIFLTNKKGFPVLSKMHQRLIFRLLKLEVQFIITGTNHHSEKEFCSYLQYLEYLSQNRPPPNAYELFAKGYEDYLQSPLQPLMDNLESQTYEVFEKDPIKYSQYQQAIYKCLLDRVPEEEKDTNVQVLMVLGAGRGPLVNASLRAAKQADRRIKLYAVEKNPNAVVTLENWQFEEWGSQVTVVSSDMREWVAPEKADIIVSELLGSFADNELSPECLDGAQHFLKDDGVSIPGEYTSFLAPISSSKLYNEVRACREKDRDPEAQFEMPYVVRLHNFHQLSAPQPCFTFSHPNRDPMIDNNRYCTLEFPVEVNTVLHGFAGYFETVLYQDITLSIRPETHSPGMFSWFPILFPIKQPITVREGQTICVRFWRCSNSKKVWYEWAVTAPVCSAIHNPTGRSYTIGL
T1 sequence (Q9BQA1 whole entry partner): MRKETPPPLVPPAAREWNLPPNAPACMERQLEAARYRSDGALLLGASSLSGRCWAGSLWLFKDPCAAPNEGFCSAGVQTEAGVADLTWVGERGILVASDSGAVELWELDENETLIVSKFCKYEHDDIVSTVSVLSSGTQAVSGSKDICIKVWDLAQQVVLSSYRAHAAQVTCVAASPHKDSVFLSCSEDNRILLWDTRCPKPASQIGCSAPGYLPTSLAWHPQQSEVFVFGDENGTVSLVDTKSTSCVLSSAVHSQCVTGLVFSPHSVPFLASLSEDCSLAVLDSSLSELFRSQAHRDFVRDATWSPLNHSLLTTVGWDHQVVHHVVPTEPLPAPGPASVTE

Structure (SMILES) | IC50 (PRMT5/MEP50 complex [1]) [nM] | IC50 (PRMT5/MEP50 complex [2]) [nM] | IC50 (U-87 MG cells) [nM] | IC50 [3] [nM] | IC50 [4] [nM]
Cc1ncnc2c1ccn2[C@@H]1O[C@H]([C@](C)(O)c2ccc3c(c2)CC3)[C@@H](O)[C@H]1O [Example 9, (2S,3S,4R,5R)-2-((R)-1-(bicyclo[4.2.0]octa-1(6),2,4-trien-3-yl)-1-hydroxyethyl)-5-(4-methyl-7H-pyrrolo[2,3-d]pyrimidin-7-yl)tetrahydrofuran-3,4-diol] | 5 | 24.3 | 388 | 110 | –
Nc1ncnc2c1ccn2[C@@H]1O[C@H]([C@H](O)c2ccc3c(c2)OCC3)[C@@H](O)[C@H]1O [Example 14, (2R,3R,4S,5R)-2-(4-amino-7H-pyrrolo[2,3-d]pyrimidin-7-yl)-5-((R)-(2,3-dihydrobenzofuran-6-yl)(hydroxy)methyl)tetrahydrofuran-3,4-diol] | 6 | 4.4 | – | – | 203
Cc1ncnc2c1ccn2[C@@H]1O[C@H]([C@H](O)c2ccc3c(c2)CCC3)[C@@H](O)[C@H]1O [Example 44, (2R,3S,4R,5R)-2-((R)-(2,3-dihydro-1H-inden-5-yl)(hydroxy)methyl)-5-(4-methyl-7H-pyrrolo[2,3-d]pyrimidin-7-yl)tetrahydrofuran-3,4-diol] | – | 23.7 | 1160 | 113 | –
Nc1ncnc2c1ccn2[C@@H]1O[C@H]([C@H](O)c2ccc3c(c2)CCC3)[C@@H](O)[C@H]1O [Example 45, (2R,3R,4S,5R)-2-(4-amino-7H-pyrrolo[2,3-d]pyrimidin-7-yl)-5-((R)-(2,3-dihydro-1H-inden-5-yl)(hydroxy)methyl)tetrahydrofuran-3,4-diol] | – | 6.6 | 547 | 54 | –
COCCc1ncnc2c1ccn2[C@@H]1O[C@H]([C@H](O)c2ccc3c(c2)CC3)[C@@H](O)[C@H]1O [Example 48, (2R,3S,4R,5R)-2-((R)-bicyclo[4.2.0]octa-1(6),2,4-trien-3-yl(hydroxy)methyl)-5-(4-(2-methoxyethyl)-7H-pyrrolo[2,3-d]pyrimidin-7-yl)tetrahydrofuran-3,4-diol] | – | 74 | 10000 | 758 | 337
O[C@@H]1[C@H](O)[C@@H]([C@H](O)c2ccc3c(c2)CC3)O[C@H]1n1ccc2c(CF)ncnc21 [Example 49, (2R,3S,4R,5R)-2-((R)-bicyclo[4.2.0]octa-1(6),2,4-trien-3-yl(hydroxy)methyl)-5-(4-(fluoromethyl)-7H-pyrrolo[2,3-d]pyrimidin-7-yl)tetrahydrofuran-3,4-diol] | – | 78 | 10000 | 625 | 375
